Results on 31 molecules are retold here after patent publication US9108903B2, “Amides as modulators of sodium channels” (VERTEX PHARMACEUTICALS INCORPORATED, priority 2013, dated 2015).

The target in this test is human Nav1.8 (Homo sapiens (Human), UniProt Q9Y5Y9). Briefly: E-VIPR optical membrane potential assay with electrical stimulation. The test is classed as cell-based. Particulars: HEK cells expressing human Nav1.8. An excerpt: Assays for Detecting and Measuring NaV Inhibition Properties of Compounds E-VIPR Optical Membrane Potential Assay Method with Electrical Stimulation
Sequence of human Nav1.8 (Q9Y5Y9 whole entry): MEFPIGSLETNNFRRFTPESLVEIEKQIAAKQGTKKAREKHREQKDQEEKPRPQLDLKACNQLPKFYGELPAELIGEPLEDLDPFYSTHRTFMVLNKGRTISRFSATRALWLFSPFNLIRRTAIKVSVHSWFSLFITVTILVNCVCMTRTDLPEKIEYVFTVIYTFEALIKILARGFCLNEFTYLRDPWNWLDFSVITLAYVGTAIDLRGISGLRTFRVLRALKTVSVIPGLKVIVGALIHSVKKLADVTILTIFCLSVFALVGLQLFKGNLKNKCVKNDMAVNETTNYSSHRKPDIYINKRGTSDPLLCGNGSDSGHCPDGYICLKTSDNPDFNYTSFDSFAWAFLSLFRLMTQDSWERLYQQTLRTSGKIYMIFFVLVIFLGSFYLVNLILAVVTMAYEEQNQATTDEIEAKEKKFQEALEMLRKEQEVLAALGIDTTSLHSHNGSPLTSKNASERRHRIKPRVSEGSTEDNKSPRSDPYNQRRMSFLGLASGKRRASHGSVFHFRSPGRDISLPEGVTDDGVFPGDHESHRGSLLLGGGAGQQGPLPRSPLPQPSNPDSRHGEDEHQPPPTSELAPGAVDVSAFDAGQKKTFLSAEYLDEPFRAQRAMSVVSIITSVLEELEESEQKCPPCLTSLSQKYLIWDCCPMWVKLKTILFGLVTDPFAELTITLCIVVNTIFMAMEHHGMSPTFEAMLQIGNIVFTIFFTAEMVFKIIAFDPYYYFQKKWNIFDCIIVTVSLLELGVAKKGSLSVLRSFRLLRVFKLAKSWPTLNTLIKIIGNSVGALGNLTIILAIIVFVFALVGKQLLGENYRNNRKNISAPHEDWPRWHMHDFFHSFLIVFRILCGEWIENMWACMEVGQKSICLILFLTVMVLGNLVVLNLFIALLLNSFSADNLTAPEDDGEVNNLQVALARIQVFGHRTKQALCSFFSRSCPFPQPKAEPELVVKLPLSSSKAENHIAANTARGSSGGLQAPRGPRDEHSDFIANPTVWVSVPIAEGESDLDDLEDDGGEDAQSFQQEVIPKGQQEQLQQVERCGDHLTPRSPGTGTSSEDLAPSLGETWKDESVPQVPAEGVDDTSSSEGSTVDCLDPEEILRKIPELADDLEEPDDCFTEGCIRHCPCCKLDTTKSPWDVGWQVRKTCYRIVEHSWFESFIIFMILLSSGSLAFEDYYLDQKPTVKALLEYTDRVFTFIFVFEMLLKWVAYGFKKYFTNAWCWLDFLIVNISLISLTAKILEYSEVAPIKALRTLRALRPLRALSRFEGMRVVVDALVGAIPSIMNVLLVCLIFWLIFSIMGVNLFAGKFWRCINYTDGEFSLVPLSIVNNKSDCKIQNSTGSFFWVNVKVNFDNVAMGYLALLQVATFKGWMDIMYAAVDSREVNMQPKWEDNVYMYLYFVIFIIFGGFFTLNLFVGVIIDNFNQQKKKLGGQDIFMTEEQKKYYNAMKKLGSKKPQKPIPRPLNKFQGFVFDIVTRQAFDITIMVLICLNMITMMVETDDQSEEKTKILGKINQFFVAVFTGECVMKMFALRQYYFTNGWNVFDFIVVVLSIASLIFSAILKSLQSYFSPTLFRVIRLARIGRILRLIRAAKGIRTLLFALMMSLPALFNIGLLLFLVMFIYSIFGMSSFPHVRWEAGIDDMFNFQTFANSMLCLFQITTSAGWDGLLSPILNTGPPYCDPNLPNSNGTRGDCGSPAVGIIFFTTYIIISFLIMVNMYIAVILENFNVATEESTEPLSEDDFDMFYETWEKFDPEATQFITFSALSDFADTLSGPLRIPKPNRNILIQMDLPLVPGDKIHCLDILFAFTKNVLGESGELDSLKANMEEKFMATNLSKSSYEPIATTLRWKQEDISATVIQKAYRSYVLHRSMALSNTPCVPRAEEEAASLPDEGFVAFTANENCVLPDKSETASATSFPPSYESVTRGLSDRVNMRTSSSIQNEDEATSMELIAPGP
Sodium channels are voltage-dependent proteins that can be activated by inducing membrane voltage changes by applying electric fields. The electrical stimulation instrument and methods of use are described in Ion Channel Assay Methods PCT/US01/21652, herein incorporated by reference and are referred to as E-VIPR. The instrument comprises a microtiter plate handler, an optical system for exciting the coumarin dye while simultaneously recording the coumarin and oxonol emissions, a waveform generator, a current- or voltage-controlled amplifier, and a device for inserting electrodes in well. Under integrated computer control, this instrument passes user-programmed electrical stimulus protocols to cells within the wells of the microtiter plate.
24 hours before the assay on E-VIPR, HEK cells expressing human Nav1.8 were seeded in 384-well poly-lysine coated plates at 15,000-20,000 cells per well. HEK cells were grown in media (exact composition is specific to each cell type and NaV subtype) supplemented with 10% FBS (Fetal Bovine Serum, qualified; GibcoBRL #16140-071) and 1% Pen-Strep (Penicillin-Streptomycin; GibcoBRL #15140-122). Cells were grown in vented cap flasks, in 90% humidity and 5% CO2.
100 mg/mL Pluronic F-127 (Sigma #P2443), in dry DMSO
Compound Plates: 384-well round bottom plate, e.g. Corning 384-well Polypropylene Round Bottom #3656
Cell Plates: 384-well tissue culture treated plate, e.g. Greiner #781091-1B
Bath1 buffer: Glucose 10 mM (1.8 g/L), Magnesium Chloride (Anhydrous), 1 mM (0.095 g/L), Calcium Chloride, 2 mM (0.222 g/L), HEPES 10 mM (2.38 g/L), Potassium Chloride, 4.5 mM (0.335 g/L), Sodium Chloride 160 mM (9.35 g/L).
Hexyl Dye Solution: Bath1 Buffer+0.5% β-cyclodextrin (make this prior to use, Sigma #C4767), 8 μM CC2-DMPE+2.5 μM DiSBAC6(3). To make the solution added volume of 10% Pluronic F127 stock equal to volumes of CC2-DMPE+DiSBAC6(3). The order of preparation was first mix Pluronic and CC2-DMPE, then added DiSBAC6(3) while vortexing, then added Bath1+β-Cyclodextrin.
1) Pre-spotted compounds (in neat DMSO) into compound plates. Vehicle control (neat DMSO), the positive control (20 mM DMSO stock tetracaine, 125 μM final in assay) and test compounds were added to each well at 160× desired final concentration in neat DMSO. Final compound plate volume was 80 μL (80-fold intermediate dilution from 1 μL DMSO spot; 160-fold final dilution after transfer to cell plate). Final DMSO concentration for all wells in assay was 0.625%.
2) Prepared Hexyl Dye Solution.
3) Prepared cell plates. On the day of the assay, medium was aspirated and cells were washed three times with 100 μL of Bath1 Solution, maintaining 25 μL residual volume in each well.
4) Dispensed 25 μL per well of Hexyl Dye Solution into cell plates. Incubated for 20-35 minutes at room temp or ambient conditions.
5) Dispensed 80 μL per well of Bath1 into compound plates. Acid Yellow-17 (1 mM) was added and Potassium Chloride was altered from 4.5 to 20 mM depending on the NaV subtype and assay sensitivity.
6) Washed cell plates three times with 100 μL per well of Bath1, leaving 25 μL of residual volume. Then transfered 25 uL per well from Compound Plates to Cell Plates. Incubated for 20-35 minutes at room temp/ambient condition.
7) Read Plate on E-VIPR. Used the current-controlled amplifier to deliver stimulation wave pulses for 10 seconds and a scan rate of 200 Hz. A pre-stimulus recording was performed for 0.5 seconds to obtain the un-stimulated intensities baseline. The stimulatory waveform was followed by 0.5 seconds of post-stimulation recording to examine the relaxation to the resting state.
Data was analyzed and reported as normalized ratios of emission intensities measured in the 460 nm and 580 nm channels. The response as a function of time was reported as the ratios obtained using the following formula: […]
The term IC50 denotes the concentration needed to halve the response being measured. Low readings indicate inhibition by little substance, high ones a need for much substance. For the molecule `COc1cc(F)ccc1Oc1cc(C(C)(C)C)ccc1C(=O)Nc1ccc(C(=O)O)nc1` [Compound 52, 5-(4-(tert-butyl)-2-(4-fluoro-2-methoxyphenoxy)benzamido)picolinic acid], inhibition was half-maximal at 31 nM (IC50).
In the case of `O=C(O)c1ccc(NC(=O)c2ccccc2Oc2ccc(F)cc2)cn1` [Compound 55, 5-(2-(4-fluorophenoxy)benzamido)picolinic acid], 4350 nM corresponded to half-maximal inhibition (IC50).
In the case of `O=C(O)c1ccc(NC(=O)c2c(Oc3ccc(F)cc3F)cc(C(F)(F)F)cc2C(F)(F)F)cc1` [Compound 8, 4-(2-(2,4-difluorophenoxy)-4,6-bis(trifluoromethyl)benzamido)benzoic acid], 405 nM corresponded to half-maximal inhibition (IC50).
In the case of “4-(4,5-dichloro-2-(4-fluoro-2-methoxyphenoxy)benzamido)picolinic acid [Compound 76]” it was 12 nM.
`O=C(O)c1ccc(NC(=O)c2cc(Cl)c(Cl)cc2Oc2ccc(F)cc2F)cn1` [Compound 42, 5-(4,5-dichloro-2-(2,4-difluorophenoxy)benzamido)picolinic acid]: the midpoint of inhibition, the IC50, lay at 31 nM.
In turn, `O=C(O)c1ccc(NC(=O)c2cc(Cl)c(Cl)cc2Oc2ccc(OC(F)(F)F)cc2)cc1` [Compound 26, 4-(4,5-dichloro-2-(4-(trifluoromethoxy)phenoxy)benzamido)benzoic acid] yielded an IC50 of 24 nM.
With `Cc1cc(F)ccc1Oc1cc(C(F)(F)F)ccc1C(=O)Nc1ccc(C(=O)O)cc1` [Compound 5, 4-(2-(4-fluoro-2-methylphenoxy)-4-(trifluoromethyl)benzamido)benzoic acid] the figure was 60 nM.
Molecule `O=C(O)c1ccc(NC(=O)c2cc(C(F)(F)F)ccc2Oc2ccccc2OC(F)F)cn1` [Compound 60, 5-(2-(2-(difluoromethoxy)phenoxy)-5-(trifluoromethyl)benzamido)picolinic acid] gave an IC50 of 650 nM.
`COc1ccc(Oc2cc(C(F)(F)F)cc(C(F)(F)F)c2C(=O)Nc2ccc(C(=O)O)nc2)cc1` [Compound 46, 5-(2-(4-methoxyphenoxy)-4,6-bis(trifluoromethyl)benzamido)picolinic acid] showed an IC50 of 66 nM.
The molecule `Cc1cc(F)ccc1Oc1cc(Cl)c(Cl)cc1C(=O)Nc1ccc(C(=O)O)nc1` [Compound 32, 5-(4,5-dichloro-2-(4-fluoro-2-methylphenoxy)benzamido)picolinic acid] came in with an IC50 of 11 nM.
In the case of `COc1ccc(Oc2cc(Cl)c(Cl)cc2C(=O)Nc2ccc(C(=O)O)cc2)c(F)c1` [Compound 16, 4-(4,5-dichloro-2-(2-fluoro-4-methoxyphenoxy)benzamido)benzoic acid] it was 115 nM.
In the case of `O=C(O)c1ccc(NC(=O)c2cc(C(F)(F)F)ccc2Oc2ccccc2Cl)cn1` [Compound 63, 5-(2-(2-chlorophenoxy)-5-(trifluoromethyl)benzamido)picolinic acid] it was 430 nM; in that of `CC(C)(C)c1ccc(C(=O)Nc2ccc(C(=O)O)nc2)c(Oc2ccc(F)cc2)c1` [Compound 54, 5-(4-(tert-butyl)-2-(4-fluorophenoxy)benzamido)picolinic acid], 180 nM; in that of `O=C(O)c1ccc(NC(=O)c2cc(Cl)c(Cl)cc2Oc2ccc(F)cc2Cl)cc1` [Compound 23, 4-(4,5-dichloro-2-(2-chloro-4-fluorophenoxy)benzamido)benzoic acid], 33 nM.
`O=C(O)c1ccc(NC(=O)c2cc(Cl)c(Cl)cc2Oc2ccccc2)cn1` [Compound 33, 5-(4,5-dichloro-2-phenoxybenzamido)picolinic acid] gave an IC50 of 190 nM.
As to `Cc1cc(Cl)ccc1Oc1cc(Cl)c(Cl)cc1C(=O)Nc1ccc(C(=O)O)nc1` [Compound 38, 5-(4,5-dichloro-2-(4-chloro-2-methylphenoxy)benzamido)picolinic acid], 74 nM corresponded to half-maximal inhibition (IC50).
`O=C(O)c1ccc(NC(=O)c2c(Oc3ccc(F)cc3Cl)cccc2C(F)(F)F)cn1` [Compound 74, 5-(2-(2-chloro-4-fluorophenoxy)-6-(trifluoromethyl)benzamido)picolinic acid] came in with an IC50 of 405 nM.
Molecule `O=C(O)c1ccc(NC(=O)c2ccc(C(F)(F)C(F)(F)F)cc2Oc2ccc(F)cc2Cl)cc1` [Compound 1, 4-(2-(2-chloro-4-fluorophenoxy)-4-(perfluoroethyl)benzamido)benzoic acid] had an IC50 of 17 nM.
Turning to `COc1ccc(Oc2cc(Cl)c(Cl)cc2C(=O)Nc2ccc(C(=O)O)nc2)cc1F` [Compound 40, 5-(4,5-dichloro-2-(3-fluoro-4-methoxyphenoxy)benzamido)picolinic acid], the IC50 amounted to 34 nM.
`COc1cc(F)ccc1Oc1cc(Cl)c(Cl)cc1C(=O)Nc1ccc(C(=O)O)nc1` [Compound 51, 5-(4,5-dichloro-2-(4-fluoro-2-methoxyphenoxy)benzamido)picolinic acid] had a 50% inhibitory concentration (IC50) of 9 nM.
In the case of `COc1ccccc1Oc1ccc(C(F)(F)F)cc1C(=O)Nc1ccc(C(=O)O)nc1` [Compound 62, 5-(2-(2-methoxyphenoxy)-5-(trifluoromethyl)benzamido)picolinic acid], the IC50 is 370 nM.
`O=C(O)c1ccc(NC(=O)c2cc(Cl)c(Cl)cc2Oc2ccc(F)cc2F)cc1` [Compound 24, 4-(4,5-dichloro-2-(2,4-difluorophenoxy)benzamido)benzoic acid] came in with an IC50 of 53 nM.
Turning to `O=C(O)c1ccc(NC(=O)c2cc(Cl)c(Cl)cc2Oc2ccc(OCC(F)(F)F)cc2)cc1` [Compound 17, 4-(4,5-dichloro-2-(4-(2,2,2-trifluoroethoxy)phenoxy)benzamido)benzoic acid], the IC50 was 62 nM.
Molecule `COc1ccc(Oc2ccc(C(F)(F)F)cc2C(=O)Nc2ccc(C(=O)O)nc2)c(C)c1` [Compound 67, 5-(2-(4-methoxy-2-methylphenoxy)-5-(trifluoromethyl)benzamido)picolinic acid] gave an IC50 of 79 nM.
With `COc1cc(Cl)ccc1Oc1cc(Cl)c(Cl)cc1C(=O)Nc1ccc(C(=O)O)cc1` [Compound 18, 4-(4,5-dichloro-2-(4-chloro-2-methoxyphenoxy)benzamido)benzoic acid] the figure was 11 nM; with `COc1cc(F)ccc1Oc1ccc(C(F)(F)F)cc1C(=O)Nc1ccc(C(=O)O)nc1` [Compound 57, 5-(2-(4-fluoro-2-methoxyphenoxy)-5-(trifluoromethyl)benzamido)picolinic acid], 96 nM; with `O=C(O)c1ccc(NC(=O)c2cc(Cl)c(Cl)cc2Oc2ccccc2OC(F)F)cc1` [Compound 19, 4-(4,5-dichloro-2-(2-(difluoromethoxy)phenoxy)benzamido)benzoic acid], 66 nM.
On to `O=C(O)c1ccc(NC(=O)c2cc(Cl)c(Cl)cc2Oc2ccc(OCC(F)(F)F)cc2)cn1` [Compound 35, 5-(4,5-dichloro-2-(4-(2,2,2-trifluoroethoxy)phenoxy)benzamido)picolinic acid], for which the IC50 is 50 nM.
In the case of `COc1cc(Cl)ccc1Oc1ccc(C(F)(F)F)cc1C(=O)Nc1ccc(C(=O)O)nc1` [Compound 66, 5-(2-(4-chloro-2-methoxyphenoxy)-5-(trifluoromethyl)benzamido)picolinic acid] it was 68 nM.
Regarding `COc1ccc(Oc2ccc(C(F)(F)F)cc2C(=O)Nc2ccc(C(=O)O)nc2)c(OC)c1` [Compound 65, 5-(2-(2,4-dimethoxyphenoxy)-5-(trifluoromethyl)benzamido)picolinic acid], half-maximal inhibition (IC50) was put at 39 nM.
In the case of `O=C(O)c1ccc(NC(=O)c2cc(Cl)c(Cl)cc2Oc2ccc(F)cc2Cl)cn1` [Compound 41, 5-(4,5-dichloro-2-(2-chloro-4-fluorophenoxy)benzamido)picolinic acid] it was 12 nM.
